Reference: PubChem BioAssay AID256 (DTP/NCI, 2004)
Values joined by “and” are separate entries in the source; they are usually repeats but may differ in a detail not shown here. Identical values can stand only once. Toxic doses and inconclusive results are not listed.

Test system: CD2F1 mice, L1210 leukemia ip, survival T/C
Experiment: NCI In Vivo Anticancer Drug Screen. Data for tumor model L1210 Leukemia (intraperitoneal) in CD2F1 (CDF1) mice
Conditions: endpoint: mean survival time, higher = longer survival
Procedure, shortened: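 In this screen, transplantable tumors were grown in mice given either the compound or its vehicle. Results were expressed as the treated measurement relative to the control measurement.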

[1] = dose: 100.0 mg/kg/injection, schedule: Q01DX009 (ip), vehicle: saline with Tween-80
[2] = dose: 200.0 mg/kg/injection, schedule: Q01DX009 (ip), vehicle: saline with Tween-80
[3] = dose: 400.0 mg/kg/injection, schedule: Q01DX009 (ip), vehicle: saline with Tween-80
[4] = dose: 25.0 mg/kg/injection, schedule: Q01DX009 (ip), vehicle: saline
[5] = dose: 50.0 mg/kg/injection, schedule: Q01DX009 (ip), vehicle: saline
[6] = dose: 100.0 mg/kg/injection, schedule: Q01DX009 (ip), vehicle: saline
[7] = dose: 100.0 mg/kg/injection, schedule: Q01DX001 (ip), vehicle: saline with Tween-80
[8] = dose: 200.0 mg/kg/injection, schedule: Q01DX001 (ip), vehicle: saline with Tween-80
[9] = dose: 400.0 mg/kg/injection, schedule: Q01DX001 (ip), vehicle: saline with Tween-80
[10] = dose: 12.5 mg/kg/injection, schedule: Q01DX009 (ip), vehicle: saline with Tween-80
[11] = dose: 25.0 mg/kg/injection, schedule: Q01DX009 (ip), vehicle: saline with Tween-80
[12] = dose: 50.0 mg/kg/injection, schedule: Q01DX009 (ip), vehicle: saline with Tween-80
[13] = dose: 12.5 mg/kg/injection, schedule: Q01DX009 (ip), vehicle: saline
[14] = dose: 150.0 mg/kg/injection, schedule: Q01DX001 (ip), vehicle: other
[15] = dose: 300.0 mg/kg/injection, schedule: Q01DX001 (ip), vehicle: other
[16] = dose: 100.0 mg/kg/injection, schedule: Q04DX003 (ip), vehicle: saline with Tween-80
[17] = dose: 75.0 mg/kg/injection, schedule: Q01DX001 (ip), vehicle: saline
[18] = dose: 150.0 mg/kg/injection, schedule: Q01DX001 (ip), vehicle: saline
[19] = dose: 200.0 mg/kg/injection, schedule: Q04DX003 (ip), vehicle: saline with Tween-80
[20] = dose: 400.0 mg/kg/injection, schedule: Q04DX003 (ip), vehicle: saline with Tween-80

Structure (SMILES): NS(=O)(=O)c1cccc([As](=O)(O)O)c1
- T/C (dose: 50.0 mg/kg/injection, schedule: Q04DX003 (ip), vehicle: saline): 105 % of control
- T/C (dose: 100.0 mg/kg/injection, schedule: Q04DX003 (ip), vehicle: saline): 95 % of control
- T/C (dose: 200.0 mg/kg/injection, schedule: Q04DX003 (ip), vehicle: saline): 94 % of control

Structure (SMILES): N#CC(C#N)=C1c2ccccc2C(=O)c2ccccc21
- T/C [1]: 90 % of control
- T/C [2]: 86 % of control
- T/C [3]: 90 % of control

Structure (SMILES): Nc1nc([Se]Cc2ccc([N+](=O)[O-])cc2)c2ncn(C3OC(CO)C(O)C3O)c2n1 (centres undefined)
- T/C [4]: 111 % of control
- T/C [5]: 119 % of control
- T/C [6]: 100 % of control

Structure (SMILES): CCCC[N+](CCCC)(CCCC)Cc1ccccc1
- T/C (dose: 1.5 mg/kg/injection, schedule: Q04DX003 (ip), vehicle: saline): 100 % of control
- T/C (dose: 3.0 mg/kg/injection, schedule: Q04DX003 (ip), vehicle: saline): 97 % of control
- T/C (dose: 6.0 mg/kg/injection, schedule: Q04DX003 (ip), vehicle: saline): 94 % of control

Structure (SMILES): COC(=O)/C=C\n1cnc2ccccc21
- T/C (dose: 75.0 mg/kg/injection, schedule: Q01DX009 (ip), vehicle: other): 95 % of control
- T/C (dose: 150.0 mg/kg/injection, schedule: Q01DX009 (ip), vehicle: other): 101 % of control
- T/C (dose: 300.0 mg/kg/injection, schedule: Q01DX009 (ip), vehicle: other): 110 % of control

Structure (SMILES): C/C(=N/Nc1ccccc1)c1cccs1
- T/C [7]: 102 % of control
- T/C [8]: 102 % of control
- T/C [9]: 94 % of control

Structure (SMILES): N#CC(C#N)=C(C#N)c1ccccc1
- T/C [10]: 96 % of control
- T/C [11]: 98 % of control
- T/C (dose: 50.0 mg/kg/injection, schedule: Q01DX001 (ip), vehicle: saline with Tween-80): 94 % of control
- T/C [12]: 94 % of control

Structure (SMILES): Cc1ccc(S(=O)(=O)SC(Cl)(Cl)Cl)cc1
- T/C [13]: 94 % of control
- T/C [4]: 102 % of control

Structure (SMILES): Oc1c(C(c2ccccc2)N2CCCCC2)ccc2ccccc12 (centres undefined)
- T/C [1]: 101 % of control
- T/C [2]: 97 % of control

Structure (SMILES): COc1ccc(COc2ccc([N+](=O)[O-])cc2)cc1
- T/C (dose: 100.0 mg/kg/injection, schedule: Q04DX002 (ip), vehicle: saline with Tween-80): 87 % of control
- T/C (dose: 400.0 mg/kg/injection, schedule: Q04DX002 (ip), vehicle: saline with Tween-80): 87 % of control

Structure (SMILES): CC(=O)c1ccccc1C(C)C
- T/C [11]: 91 % of control
- T/C [12]: 96 % of control
- T/C [1]: 94 % of control

Structure (SMILES): COC(=O)N1c2ccccc2C23CCN4CCCC5(CCC12C(C(=O)O)C5)C43 (centres undefined)
- T/C (dose: 75.0 mg/kg/injection, schedule: Q01DX001 (ip), vehicle: other): 93 % of control
- T/C [14]: 101 % of control
- T/C [15]: 107 % of control

Structure (SMILES): C=CC[n+]1cc2c3ccccc3c(N)cc2c2ccccc21
- T/C (dose: 1.56 mg/kg/injection, schedule: Q04DX003 (ip), vehicle: water): 106 % of control
- T/C (dose: 3.13 mg/kg/injection, schedule: Q04DX003 (ip), vehicle: water): 108 % of control
- T/C (dose: 6.25 mg/kg/injection, schedule: Q04DX003 (ip), vehicle: water): 98 % of control

Structure (SMILES): CCOP(=O)(NCCOC)OCC
- T/C [4]: 94 % of control
- T/C (dose: 25.0 mg/kg/injection, schedule: Q04DX003 (ip), vehicle: saline with Tween-80): 101 % of control
- T/C [5]: 91 % of control
- T/C (dose: 50.0 mg/kg/injection, schedule: Q04DX003 (ip), vehicle: saline with Tween-80): 94 % of control
- T/C [6]: 88 % of control
- T/C [16]: 101 % of control

Structure (SMILES): OCCOCC(F)(F)F
- T/C (dose: 6.25 mg/kg/injection, schedule: Q01DX009 (ip), vehicle: saline with Tween-80): 100 % of control
- T/C [10]: 90 % of control and 112 % of control
- T/C [11]: 95 % of control and 102 % of control
- T/C [12]: 94 % of control and 100 % of control
- T/C [1]: 94 % of control and 100 % of control
- T/C [2]: 94 % of control and 110 % of control

Structure (SMILES): Cc1[nH]c2ccc([N+](=O)[O-])cc2c1CN(C)C
- T/C [17]: 96 % of control
- T/C [18]: 100 % of control

Structure (SMILES): CCCCCCCC(=O)Nc1cc(C)ccc1C
- T/C [1]: 94 % of control
- T/C [16]: 98 % of control
- T/C [2]: 94 % of control
- T/C [19]: 97 % of control
- T/C [3]: 98 % of control
- T/C [20]: 98 % of control

Structure (SMILES): O=C1C(Cl)=C(NCc2ccccc2Cl)C(=O)c2ccccc21
- T/C (dose: 12.5 mg/kg/injection, schedule: Q01DX001 (ip), vehicle: saline with Tween-80): 108 % of control
- T/C (dose: 25.0 mg/kg/injection, schedule: Q01DX001 (ip), vehicle: saline with Tween-80): 108 % of control

Structure (SMILES): CCC1c2ccc3cc(O)ccc3c2CCC1(C)C(=O)OC (centres undefined)
- T/C (dose: 50.0 mg/kg/injection, schedule: Q01DX001 (ip), vehicle: Klucel (hydroxypropylcellulose) (HPC)): 96 % of control
- T/C (dose: 100.0 mg/kg/injection, schedule: Q01DX001 (ip), vehicle: Klucel (hydroxypropylcellulose) (HPC)): 96 % of control
- T/C (dose: 200.0 mg/kg/injection, schedule: Q01DX001 (ip), vehicle: Klucel (hydroxypropylcellulose) (HPC)): 104 % of control

Structure (SMILES): O=S(=O)(F)/C=C/c1ccccc1
- T/C [16]: 88 % of control
- T/C [19]: 97 % of control

Structure (SMILES): Nc1nc2ccccc2c2c1C(=O)NC2=O
- T/C [12]: 103 % of control
- T/C [1]: 100 % of control
- T/C [16]: 95 % of control
- T/C [2]: 96 % of control
- T/C [19]: 91 % of control

Structure (SMILES): CCOC(=O)CN1C(=O)NC(c2ccccc2)(c2ccccc2)C1=O
- T/C [1]: 94 % of control
- T/C (dose: 100.0 mg/kg/injection, schedule: Q04DX003 (ip), vehicle: acetone): 97 % of control
- T/C (dose: 200.0 mg/kg/injection, schedule: Q04DX003 (ip), vehicle: acetone): 101 % of control
- T/C [3]: 94 % of control
- T/C (dose: 400.0 mg/kg/injection, schedule: Q04DX003 (ip), vehicle: acetone): 103 % of control

Structure (SMILES): Fc1ccc(NC(=S)S)cc1
- T/C (dose: 6.25 mg/kg/injection, schedule: Q01DX009 (ip), vehicle: saline): 86 % of control
- T/C [13]: 114 % of control
- T/C [4]: 93 % of control

Structure (SMILES): O=C(Nc1ccccc1C(F)(F)F)Nc1cccc2ccccc12
- T/C [16]: 95 % of control
- T/C [19]: 104 % of control
- T/C [20]: 95 % of control

Structure (SMILES): O=[N+]([O-])c1ccc(N/N=C(\CCl)c2ccccc2)c([N+](=O)[O-])c1
- T/C [7]: 92 % of control
- T/C [8]: 97 % of control
- T/C [9]: 92 % of control

Structure (SMILES): CCN(CCP(c1ccccc1)c1ccccc1)CCP(c1ccccc1)c1ccccc1
- T/C [14]: 110 % of control
- T/C [15]: 115 % of control

Structure (SMILES): Brc1ccc(N=Cc2ccccc2)cc1
- T/C (dose: 100.0 mg/kg/injection, schedule: Q04DX002 (ip), vehicle: saline): 100 % of control
- T/C (dose: 200.0 mg/kg/injection, schedule: Q04DX002 (ip), vehicle: saline): 103 % of control
- T/C (dose: 400.0 mg/kg/injection, schedule: Q04DX002 (ip), vehicle: saline): 107 % of control

Structure (SMILES): COc1cc(NS(C)(=O)=O)ccc1Nc1c2ccc([N+](=O)[O-])cc2nc2c(C)cccc12
- T/C (dose: 3.75 mg/kg/injection, schedule: Q04DX003 (ip), vehicle: saline with Tween-80): 151 % of control
- T/C (dose: 7.5 mg/kg/injection, schedule: Q01DX009 (ip), vehicle: saline with Tween-80): 111 % of control
- T/C (dose: 7.5 mg/kg/injection, schedule: Q04DX003 (ip), vehicle: saline with Tween-80): 164 % of control
- T/C (dose: 15.0 mg/kg/injection, schedule: Q04DX003 (ip), vehicle: saline with Tween-80): 235 % of control
- T/C (dose: 37.5 mg/kg/injection, schedule: Q04DX003 (ip), vehicle: saline): 109 % of control
- T/C (dose: 75.0 mg/kg/injection, schedule: Q04DX003 (ip), vehicle: saline): 86 % of control

Structure (SMILES): O=C1NC(=O)C2=C1C1(Cl)C(Cl)=C(Cl)C2(Cl)C1(Cl)Cl
- T/C [16]: 103 % of control
- T/C [19]: 101 % of control
- T/C [20]: 103 % of control

Structure (SMILES): O=CN(/C=C1\CC(OO)NC1=O)Cc1ccccc1 (centres undefined)
- T/C [17]: 102 % of control
- T/C [18]: 108 % of control

Structure (SMILES): c1ccc(SCN2CCN(CSc3ccccc3)CC2)cc1
- T/C [6]: 91 % of control

Structure (SMILES): N#Cc1ccccc1C(C#N)c1ccc([N+](=O)[O-])cc1 (centres undefined)
- T/C (dose: 50.0 mg/kg/injection, schedule: Q04DX003 (ip), vehicle: DMSO): 93 % of control
- T/C (dose: 100.0 mg/kg/injection, schedule: Q04DX003 (ip), vehicle: DMSO): 98 % of control
- T/C (dose: 200.0 mg/kg/injection, schedule: Q04DX003 (ip), vehicle: DMSO): 93 % of control
- T/C (dose: 400.0 mg/kg/injection, schedule: Q04DX003 (ip), vehicle: DMSO): 96 % of control
